This is an account of results in patent publication US20230055237A1, “COMPOUNDS AND METHODS FOR THE TREATMENT OF CYSTIC FIBROSIS” (Flatley Discovery Lab, LLC, priority 2019, published 2023).

The structures appear in SMILES notation.

The target in this test is T1, CFTR (Homo sapiens, UniProt P13569, DEL508-508).
T1 construct: Primary CF airway epithelial cells were obtained from the UNC Cystic Fibrosis Tissue Procurement and Cell Culture Core; host or cells: primary CF airway epithelial cells, differentiated at the air-liquid interface
T1 sequence (P13569 with tags, fused parts or gaps DEL508-508): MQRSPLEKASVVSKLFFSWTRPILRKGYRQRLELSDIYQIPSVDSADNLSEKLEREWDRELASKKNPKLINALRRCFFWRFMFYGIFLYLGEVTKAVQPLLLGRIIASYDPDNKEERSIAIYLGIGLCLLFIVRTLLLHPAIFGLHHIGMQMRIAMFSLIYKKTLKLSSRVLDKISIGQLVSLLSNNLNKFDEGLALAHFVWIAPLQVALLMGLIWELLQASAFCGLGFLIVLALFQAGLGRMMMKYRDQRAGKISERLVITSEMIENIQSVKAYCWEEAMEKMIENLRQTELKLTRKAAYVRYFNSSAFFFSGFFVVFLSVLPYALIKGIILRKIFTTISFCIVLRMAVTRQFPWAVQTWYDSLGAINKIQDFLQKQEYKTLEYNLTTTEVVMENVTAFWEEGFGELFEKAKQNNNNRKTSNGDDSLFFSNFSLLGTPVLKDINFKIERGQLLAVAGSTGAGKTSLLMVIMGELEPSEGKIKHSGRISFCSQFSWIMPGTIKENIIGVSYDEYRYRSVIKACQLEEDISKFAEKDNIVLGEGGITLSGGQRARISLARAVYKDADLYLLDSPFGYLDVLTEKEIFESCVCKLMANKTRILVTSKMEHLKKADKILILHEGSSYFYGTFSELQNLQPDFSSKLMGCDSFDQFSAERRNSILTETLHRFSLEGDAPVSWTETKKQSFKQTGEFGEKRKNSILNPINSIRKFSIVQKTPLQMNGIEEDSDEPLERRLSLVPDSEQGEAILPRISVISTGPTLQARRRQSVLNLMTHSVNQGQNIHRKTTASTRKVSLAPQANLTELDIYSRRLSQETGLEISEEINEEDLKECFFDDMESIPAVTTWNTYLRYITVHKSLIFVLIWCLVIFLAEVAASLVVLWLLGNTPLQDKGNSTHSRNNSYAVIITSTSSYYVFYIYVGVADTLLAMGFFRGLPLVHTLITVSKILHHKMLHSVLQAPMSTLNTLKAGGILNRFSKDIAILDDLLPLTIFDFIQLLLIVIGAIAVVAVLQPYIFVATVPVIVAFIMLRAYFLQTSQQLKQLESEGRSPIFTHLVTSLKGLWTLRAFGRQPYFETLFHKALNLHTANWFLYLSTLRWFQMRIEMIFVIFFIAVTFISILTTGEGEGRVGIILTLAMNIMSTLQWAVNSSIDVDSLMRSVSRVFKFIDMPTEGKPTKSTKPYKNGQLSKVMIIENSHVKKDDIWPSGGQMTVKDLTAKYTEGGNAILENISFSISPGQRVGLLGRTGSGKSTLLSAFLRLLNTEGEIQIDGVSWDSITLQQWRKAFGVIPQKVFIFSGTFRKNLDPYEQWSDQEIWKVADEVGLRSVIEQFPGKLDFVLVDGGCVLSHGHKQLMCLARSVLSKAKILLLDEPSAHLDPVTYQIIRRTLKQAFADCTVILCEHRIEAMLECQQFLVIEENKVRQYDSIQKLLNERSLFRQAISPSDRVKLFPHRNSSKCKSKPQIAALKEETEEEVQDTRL
Briefly: Equivalent current assay in primary CF airway epithelial cells (NAUC, combination with 1st site corrector FDL169 or VX-809). Format: cell-based. The conditions noted are these: 37° C., 24 h; for Nauc @ 1 μM: test compound 1 μM in combination with 1st site corrector VX-809 (3 μM); for Nauc @ 3 μM: test compound 3 μM in combination with 1st site corrector VX-809 (3 μM); for Nauc @ 10 μM: test compound 10 μM in combination with 1st site corrector VX-809 (3 μM).

Take `Cn1nccc1NC(=O)[C@H]1[C@@H](C(=O)Nc2cc(Cl)cc(Cl)c2)[C@H]2CCCN2[C@]12C(=O)Nc1c(Cl)cc(Cl)cc12` (single isomer, unassigned) [Example 239, (1′R,2′ S,7a′R)-5,7-dichloro-N1′-(3,5-dichlorophenyl)-N2′-(1-methyl-1H-pyrazol-5-yl)-2-oxo-1′,2′,5′,6′,7′,7a′-hexahydrospiro[indoline-3,3′-pyrrolizine]-1′,2′-dicarboxamide]: the “Nauc @ 1 μM” value was “+ (NAUC “+” refers to an observed NAUC <140% of positive control)”, the “Nauc @ 3 μM” value is recorded as “+ (NAUC “+” refers to an observed NAUC <140% of positive control)” and the “Nauc @ 10 μM” value is listed as “+ (NAUC “+” refers to an observed NAUC <140% of positive control)”.
For `Cn1ccc(NC(=O)[C@H]2[C@@H](C(=O)Nc3cc(Cl)cc(Cl)c3)[C@H]3CCCN3[C@]23C(=O)Nc2c(Cl)cc(Cl)cc23)n1` (single isomer, unassigned) [Example 240, (1′R,2′S,7a′R)-5,7-dichloro-N1′-(3,5-dichlorophenyl)-N2′-(1-methyl-1H-pyrazol-3-yl)-2-oxo-1′,2′,5′,6′,7′,7a′-hexahydrospiro[indoline-3,3′-pyrrolizine]-1′,2′-dicarboxamide], the “Nauc @ 1 μM” value is “+ (NAUC “+” refers to an observed NAUC <140% of positive control)”, the “Nauc @ 3 μM” value is on record as “+ (NAUC “+” refers to an observed NAUC <140% of positive control)” and the “Nauc @ 10 μM” value is “+ (NAUC “+” refers to an observed NAUC <140% of positive control)”.
As to `CON(C)C(=O)[C@H]1[C@@H](C(=O)Nc2cc(Cl)cc(Cl)c2)[C@H]2CCCN2[C@]12C(=O)Nc1c(Cl)cc(Cl)cc12` (single isomer, unassigned) [Example 241, (1′R,2′ S,7a′R)-5,7-dichloro-N1′-(3,5-dichlorophenyl)-N2′-methoxy-N2′-methyl-2-oxo-1′,2′,5′,6′,7′,7a′-hexahydrospiro[indoline-3,3′-pyrrolizine]-1′,2′-dicarboxamide], the “Nauc @ 1 μM” value is on record as “++ (NAUC “++” refers to an observed NAUC 170-140% of positive control)”, the “Nauc @ 3 μM” value was “+++ (NAUC “+++” refers to an observed NAUC>170% of positive control)” and the “Nauc @ 10 μM” value is recorded as “++ (NAUC “++” refers to an observed NAUC 170-140% of positive control)”.
As to `CC(=O)NNC(=O)[C@H]1[C@@H](C(=O)Nc2cc(Cl)cc(Cl)c2)[C@H]2CCCN2[C@]12C(=O)Nc1c(Cl)cc(Cl)cc12` (single isomer, unassigned) [Example 242, (1′R,2′S,7a′R)-2′-(2-acetylhydrazine-1-carbonyl)-5,7-dichloro-N-(3,5-dichlorophenyl)-2-oxo-1′,2′,5′,6′,7′,7a′-hexahydrospiro[indoline-3,3′-pyrrolizine]-1-carboxamide], the “Nauc @ 1 μM” value is recorded as “+ (NAUC “+” refers to an observed NAUC <140% of positive control)”, the “Nauc @ 3 μM” value is given as “+ (NAUC “+” refers to an observed NAUC <140% of positive control)” and the “Nauc @ 10 μM” value is on record as “+ (NAUC “+” refers to an observed NAUC <140% of positive control)”.
With `CN(C(=O)N1C(=O)C2(c3cc(Cl)cc(Cl)c31)C(C(=O)OCOC(=O)C(C)(C)C)CC1CC(F)(F)CN12)c1cc(Cl)cc(Cl)c1` (single isomer, unassigned) [Example 251b, (pivaloyloxy)methyl 5,7-dichloro-1-((3,5-dichlorophenyl)(methyl)carbamoyl)-6′,6′-difluoro-2-oxo-1′,2′,5′,6′,7′,7a′-hexahydrospiro[indoline-3,3′-pyrrolizine]-2′-carboxylate], the “Nauc @ 10 μM” value is reported as “+ (NAUC “+” refers to an observed NAUC <140% of positive control)”.
For the compound `CC(=O)OCOC(=O)[C@@H]1[C@@H](C(=O)N(C)c2cc(Cl)cc(Cl)c2)[C@H]2CC(F)(F)CN2[C@]12C(=O)Nc1c(Cl)cc(Cl)cc12` (single isomer, unassigned) [Example 256a], the “Nauc @ 10 μM” value was “+++ (NAUC “+++” refers to an observed NAUC>170% of positive control)”.
For `CC(=O)OCOC(=O)[C@H]1[C@@H](C(=O)N(C)c2cc(Cl)cc(Cl)c2)[C@H]2CC(F)(F)CN2[C@]12C(=O)Nc1c(Cl)cc(Cl)cc12` (single isomer, unassigned) [Example 256b], the “Nauc @ 10 μM” value is reported as “+ (NAUC “+” refers to an observed NAUC <140% of positive control)”.
In the case of `CN(C(=O)[C@H]1[C@@H](C(=O)O)[C@]2(C(=O)Nc3c(Cl)cc(Cl)cc32)N2CC(F)(F)C[C@@H]12)c1cc(Cl)cc(Cl)c1F` (single isomer, unassigned) [Example 265a], the “Nauc @ 1 μM” value is “+ (NAUC “+” refers to an observed NAUC <140% of positive control)”, the “Nauc @ 3 μM” value is “+++ (NAUC “+++” refers to an observed NAUC>170% of positive control)” and the “Nauc @ 10 μM” value is “+++ (NAUC “+++” refers to an observed NAUC>170% of positive control)”.
As to `CN(C(=O)[C@H]1[C@H]2CC(F)(F)CN2[C@]2(C(=O)Nc3c(Cl)cc(Cl)cc32)[C@H]1C(=O)O)c1cc(Cl)cc(Cl)c1F` (single isomer, unassigned) [Example 265b], the “Nauc @ 1 μM” value was “+ (NAUC “+” refers to an observed NAUC <140% of positive control)”, the “Nauc @ 3 μM” value is recorded as “+ (NAUC “+” refers to an observed NAUC <140% of positive control)” and the “Nauc @ 10 μM” value is listed as “+ (NAUC “+” refers to an observed NAUC <140% of positive control)”.
On to `CC(C)(C)c1cccc(CCNC(=O)C2C3N(CCC3(F)F)C3(C(=O)Nc4c(Cl)cc(Cl)cc43)C2C(=O)O)c1` (single isomer, unassigned) [Example 267, 1′-((3-(tert-butyl)phenethyl)carbamoyl)-5,7-dichloro-7′,7′-difluoro-2-oxo-1′,2′,5′,6′,7′,7a′-hexahydrospiro[indoline-3,3′-pyrrolizine]-2′-carboxylic acid], for which the “Nauc @ 1 μM” value is “+++ (NAUC “+++” refers to an observed NAUC>170% of positive control)”, the “Nauc @ 3 μM” value is recorded as “+++ (NAUC “+++” refers to an observed NAUC>170% of positive control)” and the “Nauc @ 10 μM” value is given as “+++ (NAUC “+++” refers to an observed NAUC>170% of positive control)”.
In the case of `CN(C(=O)C1C2N(CCC2(F)F)C2(C(=O)Nc3c(Cl)cc(Cl)cc32)C1C(=O)O)c1cc(Cl)cc(Cl)c1` (single isomer, unassigned) [Example 268a, 5,7-dichloro-1′-((3,5-dichlorophenyl)(methyl)carbamoyl)-7′,7′-difluoro-2-oxo-1′,2′,5′,6′,7′,7a′-hexahydrospiro[indoline-3,3′-pyrrolizine]-2′-carboxylic acid], the “Nauc @ 1 μM” value is recorded as “+ (NAUC “+” refers to an observed NAUC <140% of positive control)”, the “Nauc @ 3 μM” value was “+ (NAUC “+” refers to an observed NAUC <140% of positive control)” and the “Nauc @ 10 μM” value is recorded as “+ (NAUC “+” refers to an observed NAUC <140% of positive control)”.
Regarding `CN(C(=O)C1C2N(CCC2(F)F)C2(C(=O)Nc3c(Cl)cc(Cl)cc32)C1C(=O)O)c1cc(Cl)cc(Cl)c1` (single isomer, unassigned) [Example 268b, 5,7-dichloro-1′-((3,5-dichlorophenyl)(methyl)carbamoyl)-7′,7′-difluoro-2-oxo-1′,2′,5′,6′,7′,7a′-hexahydrospiro[indoline-3,3′-pyrrolizine]-2′-carboxylic acid], the “Nauc @ 1 μM” value is recorded as “+++ (NAUC “+++” refers to an observed NAUC>170% of positive control)” and the “Nauc @ 3 μM” value is given as “+++ (NAUC “+++” refers to an observed NAUC>170% of positive control)”.
